The test system of assay [1] is Mycolicibacterium smegmatis. Briefly: Inhibition of Mycobacterium smegmatis NDH2 in inverted membrane vesicle assessed as inhibition of […] vesicle acidification by fluorescence based analysis. In kind it is cell membranes.
For assay [2], the system named is Mycolicibacterium smegmatis. As to the kind of experiment: Inhibition of Mycobacterium smegmatis GMC_MDM2 NDH2 in inverted membrane vesicle assessed as inhibition of ATP-driven vesicle acidification by fluorescence based analysis. Format: cell membranes.
In assay [3] the test system is Mycolicibacterium smegmatis. Briefly: Inhibition of Mycobacterium smegmatis NDH2 in inverted membrane vesicle assessed as inhibition of succinate-driven vesicle acidification by fluorescence based analysis. Format: cell membranes.
Assay [4] has as its system Mycolicibacterium smegmatis. As to the kind of experiment: Inhibition of Mycobacterium smegmatis NDH2 in inverted membrane vesicle assessed as inhibition of […] vesicle acidification at up to 120 uM by fluorescence based analysis. In kind it is cell membranes.
For assay [5], the system named is Mycolicibacterium smegmatis. Briefly: Inhibition of Mycobacterium smegmatis NDH2 in inverted membrane vesicle assessed as inhibition of succinate-driven vesicle acidification at >10 uM by fluorescence based analysis. Format: cell membranes.
A short description of assay [6]: Inhibition of recombinant Mycobacterium smegmatis NDH2 catalytic activity in presence of NADH incubated for 1 min by UV-spectrometric analysis. More on the design: species or system Mycolicibacterium smegmatis.
In assay [7] the test system is Mycolicibacterium smegmatis. Briefly: Inhibition of Mycobacterium smegmatis GMC_MDM2 NDH2 in inverted membrane vesicle assessed as inhibition of ATP-driven vesicle acidification at >10 uM by fluorescence based analysis. Format: cell membranes.

Calls of active or inactive are those of the source. The calls are words filed in the database; no cut-off is given here.

This passage reports inhibition and IC50 results from ChEMBL document CHEMBL6109123, “Structure of Mycobacterial NDH-2 Bound to a 2-Mercapto-Quinazolinone Inhibitor” (J Med Chem, 2025).

As to `Nc1nc(Nc2ccc3nc(-c4ccc(F)cc4)cc(N)c3c2)cc(-c2ccc(Cl)cc2)n1`, the inhibition result in assay [1], in assay [2] and in assay [3] was “Active” throughout.

As to `Nc1nc(Nc2ccc3nc(-c4ccc(F)cc4)cc(N)c3c2)cc(-c2ccc(C(F)(F)F)cc2)n1`, the inhibition entry in assay [1], in assay [2] and in assay [3] was “Active” each time.

For `C=C(C)[C@H]1Cc2c(ccc3c2O[C@@H]2COc4cc(OC)c(OC)cc4[C@@H]2C3=O)O1`, in assay [4], the inhibition result was “inactive”.

What is called IC50 is the point on the concentration scale where inhibition reaches its midpoint. As for `O=C(CSc1nc2ccccc2c(=O)[nH]1)NC1CCCCC1`, the inhibition result is reported as “Active; Compound Showed Partial Inhibition Of Succinate Driven Acidification” in assay [5] and “Active; Compound Showed Partial Inhibition Of Atp Driven Acidification” in assay [7]. Besides, the IC50 in assay [6] was found to be 23 nM. Besides, the inhibition entry in assay [2] was “Active”.
